From patent publication US20240360137A1 (Novartis AG, priority 2023, published 2024)
pIC50: −log10 of the molar value.

Key:
[1] = test system: RB phosphorylation (Ser 807/811) in OVCAR3 xenograft tumors; assay: In vivo pharmacodynamic assessment in Cyclin E amplified OVCAR3 xenograft model (RB phosphorylation by MSD); set-up: species or system NSG mice; conditions: Mus musculus, 3 days, 1 hour after the last dose; for inhibition at 30 mg/kg: OVCAR-3, 30 mg/kg twice daily (BID) oral
Excerpt: Cyclin-dependent kinase 2 (CDK2) is a member of the protein kinase family. It plays an important role in regulating various events of the eukaryotic cell division cycle. CDK2 is involved in the inactivation of the retinoblastoma protein (RB) by phosphorylation which then allows for the G1 to S phase transition of the cell cycle. Overexpression of cyclin E, the obligate binding partner of CDK2, can cause abnormal regulation of the cell cycle, which is directly associated with hyperproliferation of cancer cells. Therefore, CDK2 is regarded as a potentially impactful therapeutic target for cancer treatment. The purpose of these studies was to evaluate the PK/PD relationship of CDK2 inhibitors in Cyclin E amplified cancer cell lines in vivo in immunodeficient mice. Plasma and tumor tissues were collected for PK analysis and PD assays (read out of RB phosphorylation inhibition) after 3 days of dosing of the CDK2 inhibitor.
(§1) The Cyclin E amplified ovarian cancer cell line OVCAR3 was tested to be free of Mycoplasma and murine viruses using the IDEXX Impact 8 panel. Cells were cultured in RPMI 1640 media supplemented with 20% FBS for fewer than 5 passages after initial thawing and prior to cell implantation into immunodeficient mice. Cells were harvested and resuspended in sterile PBS containing 50% Matrigel. Ten million viable cells were injected at a volume of 0.2 ml per mouse into the flank of immunocompromised NSG mice (1 implant per animal). When tumors reached a mean volume of 200-300 mm^3, mice were randomized and treatments were initiated. Compounds were formulated in 10% HPBCD (hydroxypropyl beta cyclodextrin) and administered orally, twice a day, in a volume of 10 ml/kg. The dosing volume was adjusted based on individual mouse body weight on the day of dosing. Pharmacodynamic markers were evaluated on day 3.
For terminal PD biomarker analysis, mice were euthanized following 3 days of treatment (1 hour post 5th dose). […] RB phosphorylation levels of the resulting tumor protein lysates were then determined by MSD. […] Values were calculated and normalized to the untreated controls. […]

[2] = PK analysis of plasma in OVCAR3 xenograft study; type: in vivo, NSG mice; conditions: 60 mg/kg BID oral, compared to Compound 1 and Compound 2 at 30 mg/kg BID
Description: as §1
For determination of compound plasma concentrations, serial blood collections were performed at designated timepoints after dosing. Blood was collected in EDTA-lined tubes and placed on wet ice. Within 30 minutes of collection, blood was centrifuged, and the plasma supernatants were aliquoted and stored at −20 C until analyzed. […] CDK2 inhibitor concentrations were measured by LC-MS/MS analysis on API 4500, API 5500+, or Sciex 7500 instruments. […]

CDK2/CyclinE1 = CDK2/CyclinE1 (Homo sapiens, UniProt P24941); assay: CDKi biochemical assay (TR-FRET, phosphorylation of S780 on RB1 peptide); conditions: CDK2/CyclinE1 100 pM, 1 mM ATP, 60 min at 25° C.
How it was run: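 CDK2/CyclinE1 (Avi-tag, 100 pM; CDK2 E. coli-expressed) phosphorylated His-MBP-RB1[773-924] (200 nM) at S780 with 1 mM ATP in HEPES pH 7.5/MgCl2/DTT, 60 min at 25° C. After EDTA quench, TR-FRET detection ran 3 h (Eu anti-p-RB S780, SA-APC). Apparent IC50 came from percent activity versus log concentration.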

CDK1/CyclinB1 = CDK1/CyclinB1 (Homo sapiens, UniProt P06493); assay: as above; conditions: CDK1/CyclinB1 10 pM, 1 mM ATP, 60 min at 25° C.
How it was run: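 CDK1/CyclinB1 (10 pM, Avi-tagged, insect-cell expressed) phosphorylated S780 of His-MBP-RB1[773-924] (200 nM) with 1 mM ATP in HEPES pH 7.5, 10 mM MgCl2, 1 mM DTT, 60 min at 25 °C. After EDTA quench, TR-FRET detection (Eu anti-pRB S780, SA-APC) for 3 h; apparent IC50 from percent activity versus log concentration.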

CDK4/cyclinD1 = CDK4/cyclinD1 (Homo sapiens, UniProt P11802); assay: as above; conditions: CDK4/cyclinD1 20 pM, 1 mM ATP, 60 min at 25° C.
How it was run: (§2)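 Avi-tagged, biotinylated CDK4/cyclinD1 (20 pM) or CDK6/cyclinD3 (10 pM) phosphorylates 200 nM His-MBP-RB1[773-924] at S780 with 1 mM ATP in HEPES pH 7.5/MgCl2, 60 min, 25° C. After EDTA quench, Eu anti-pRB(S780)/SA-APC TR-FRET is read after 3 h. Apparent IC50 comes from % activity versus log concentration.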

CDK6/cyclinD3 = CDK6/cyclinD3 (Homo sapiens, UniProt Q00534); assay: as above; conditions: CDK6/cyclinD3 10 pM, 1 mM ATP, 60 min at 25° C.
How it was run: as §2

| pIC50 (CDK2/CyclinE1) | pIC50 (CDK1/CyclinB1) | pIC50 (CDK4/cyclinD1) | pIC50 (CDK6/cyclinD3) | Compound | inhibition at 30 mg/kg [1] | also measured |
| --- | --- | --- | --- | --- | --- | --- |
| 7.06 | ≤ 5.00 | ≤ 5.00 | ≤ 5.00 | Cn1ncc(-c2n[nH]cc2Nc2ncc3c(n2)N([C@@H]2CCC[C@@H](O)C2)C(=O)C32CC2)c1C(F)(F)F [Example 84, 7′-((1R,3R)-3-hydroxycyclohexyl)-2′-((1′-methyl-5′-(trifluoromethyl)-1H,1′H-[3,4′-bipyrazol]-4-yl)amino)spiro[cyclopropane-1,5′-pyrrolo[2,3-d]pyrimidin]-6′(7′H)-one] |  |  |
| 7.57 | 5.77 | 5.36 | ≤ 5.00 | O=C1N([C@@H]2CCC[C@@H](O)C2)c2nc(Nc3c[nH]nc3OC3(CF)CC3)ncc2C12CC2 [Example 85, 2′-((3-(1-(fluoromethyl)cyclopropoxy)-1H-pyrazol-4-yl)amino)-7′-((1R,3R)-3-hydroxycyclohexyl)spiro[cyclopropane-1,5′-pyrrolo[2,3-d]pyrimidin]-6′(7′H)-one] |  |  |

The remaining lines, values behind:

| Compound | pIC50 (CDK2/CyclinE1) | pIC50 (CDK1/CyclinB1) | pIC50 (CDK4/cyclinD1) | pIC50 (CDK6/cyclinD3) | inhibition at 30 mg/kg [1] | also measured |
| --- | --- | --- | --- | --- | --- | --- |
| COc1n[nH]cc1Nc1ncc2c(n1)N([C@@H]1CCC[C@@H](O)C1)C(=O)C21CC1 [Compound 1] |  |  |  |  | ~80% |  |
| CCOc1n[nH]cc1Nc1ncc2c(n1)N([C@@H]1CCC[C@@H](O)C1)C(=O)C21CC1 [Compound 2] |  |  |  |  | ~80% |  |
| CS(=O)(=O)N1CC[C@H](Nc2ncc3c(n2)N([C@@H]2CCC[C@@H](O)C2)C(=O)C32CC2)[C@H](F)C1 [Compound 3, reference compound] |  |  |  |  |  | inhibition at 60 mg/kg ([1]; OVCAR-3, 60 mg/kg twice daily (BID) oral): ~50%; exposure [2]: lower exposure |
